Measurements as given in EP0241232A1, “Isoxazolylethanol derivatives” (SHIONOGI SEIYAKU KABUSHIKI KAISHA, priority 1986, dated 1987).

Assays:
Rhizoctonia solani [1] = test: Control of cucumber damping-off by soil drench; type: in vivo; conditions: 30 ml per cup, judged 15 days after inoculation
Experimental: (§1) Damping-off was observed 15 days after sowing, and disease degree and control effect were obtained from the following equations. [formula] [formula] where diseased seedlings included damping-off and unemerged'seeds due to infection. For the foliar diseases, disease development was observed 10 - 14 days after inoculation of spores, and control effect was obtained by the following index.
The test compound was dissolved in a small amount of acetone and suspended in demineralized distilled water containing a spreader, to a concentration of 125 ppm and 31 ppm. The soil sterilized by an autoclave was put into paper cups (diameter : 7.5 cm; depth : 6 cm) and cucumber seeds (c.v. : Matsukaze) were sown in the cups (10 seeds/pot). Then the soil surface was covered with the following soil containing pathogen. And then 30 ml of the formation of the test compound was applied to the soil in the cup.
Rhizoctonia solani incubated in a bran medium at 28 °C for 5 days was put into sterile soil and cultured for 24 hr. The inoculated soil was diluted with sterile soil to about 4 times volume. The soil surface in the cups containing cucumber seeds was covered with the soil containing Rhizoctonia solani.
Control effect was judged 15 days after inoculation and control percent was obtained as described in Experiment 3.

Candida albicans KE-2 [2] = test: Therapeutic effect against experimental candidiasis in mice; type: in vivo; conditions: KE2, po, 120 h, mouse survival ratio on the 5th day after infection, Jcl-ICR female mouse, 50 mg/kg orally three times (0, 4, 24 hours)
Experimental: After Candida albicans KE-2 was incubated on Sabouraud's glucose agar at 28 °C for 48 hr., it was suspended in Sabouraud's glucose broth and the cells ([…]) were injected to a tail vein of Jcl-ICR female mouse (4 weeks age; weight : 18 - 20 g). A suspension of the test compound in 2 % gum arabic was orally administered three times, immediately after infection of the yeast ( 0 hour), after 4 hours and after 24 hours, as a dosage of 50 mg/kg. Non-treated group was used as control. Each eight mice per group was used in control group and treated group. All the mice in control group died within 48 hr. after infection. Therapeutic effect of the test compound was judged by mouse survival ratio on the 5th day after infection.

Rhizoctonia solani [3] = test: Control by seed-soaking: Rhizoctonia damping-off in cucumber; type: in vivo; conditions: 360 h, seed-soaking, observed 15 days after sowing, control effect by equation, read-out: Control Index Rhizoctonia Damping-Off in Cucumber
Experimental: (§2) The test compound was dissolved in 0.2 ml of acetone and suspended in demineralized distilled water containing a small amount of spreader, to a concentration of 500 ppm. The suspension was further diluted to one quarter dilution with demineralized distilled water (containing a small amount of spreader) to give a suspension in 125 ppm. All seeds of oats, wheat and cucumber were soaked in these suspensions at room temperature for an hour and then the seeds were air-dried.
(§3) The seeds as described above were sown in plastic pots (diameter : 9 cm). For rust and powdery mildews, the pots were kept in a glasshouse for 1 - 3 weeks until the seeds grew to young plants. The young oats (10 - 20 plants per pot) were inoculated by dusting with spores of Puccinia coronata, and the wheat (10 - 20 plants per pot) was also inoculated by spraying with spores of Erysiphe graminis f. sp. tritici, and the cucumber (1 plant per pot) was also inoculated by spraying with spore suspension of Sphaerotheca fuliginea. These inoculated plants were further kept in a glasshouse for 10 - 14 days until assessment. For damping-off, the treated seeds were sown in paper pots (diameter : 7.5 cm; depth : 6 cm) which contained soil infested with Rhizoctonia solani by mixing sterilized soil and pre-cultured fungus. Then the pots were kept in a humid glasshouse at 25 - 32 ^*C.
as §1

[4] = tested on: Erysiphe graminis f. sp. tritici; test: Control by seed-soaking: powdery mildew in wheat; type: in vivo
Experimental: as §2, §3, §1

Puccinia coronata = test: Control by seed-soaking: crown rust in oats; type: in vivo
Experimental: as §2, §3, §1

Sphaerotheca fuliginea [5] = test: Control of cucumber powdery mildew by foliar spray; type: in vivo; conditions: observed 10 days after inoculation; for Control Index Preventive Effect: inoculation 24 hr. after application; for Control Index Curative Effect: inoculation 24 hr. before application
Experimental: The test compound was dissolved in a small amount of acetone and suspended in demineralized distilled water containing a spreader, to a concentration of 7.8 ppm and 2.0 ppm. Young cucumber plants (c.v. Tsukuba-Shiroibo) of 2-leaf stage grown in pots were sprayed sufficiently with the suspension.
Spores of Sphaerotheca fuliginea cultured in cucumber plants were collected and suspended in distilled water. Inoculation was made by spraying with the spore suspension to the test plant of 24 hr. after application of the test compound (preventive control) or 24 hr. before application (curative control).
Development of the disease was observed 10 days after inoculation and control index was obtained as described in Experiment 3.

Candida albicans KE-2 [6] = test: Inhibition test against pseudomycelium formation of Candida albicans; type: cell-based; conditions: KE2, minimum effective concentration preventing typical pseudomycelium formation, Eagle-MEM + 20 % calf serum, 18 hours at 37 °C, read-out: Inhibitory Concentration of Pseudo-myselium Formation
Experimental: Candida albicans KE-2 was inoculated to Eagle-MEM medium (Nissan 2 made by Nissui Seiyaku, Ltd.) supplemented with 20 % calf serum so that its final inoculum of yeast cell might be 1 x 10^6 yeast cells per milliliter. The test compounds were added thereon in two fold dilution series. After incubation for 18 hours at 37 °C, the fungal growth in each drug concentration was smeared and fixed on a slide glass, and the presence or absence of the pseudomycelium formation was examined by a microscope following Giemsa staining. Minimum effective concentration was defined as the lowest concentration of the compound which prevented typical pseudomycelium formation.

Sphaerotheca fuliginea [7] = test: Control by seed-soaking: powdery mildew in cucumber; type: in vivo
Experimental: as §2, §3, §1

SMILES | Control (Rhizoctonia solani [1]; soil drench 31 ppm) [%] | Control (Rhizoctonia solani [1]; soil drench 125 ppm) [%] | responders at 50 mg/kg (Candida albicans KE-2 [2]) [%] | pest or weed control at 125 ppm (Rhizoctonia solani [3]) [%] | pest or weed control at 500 ppm (Rhizoctonia solani [3]) [%] | Control Index Powdery Mildew in Wheat ([4]; 125 ppm) | Control Index Powdery Mildew in Wheat ([4]; 500 ppm) | Control Index Crown Rust in Oats (Puccinia coronata; 125 ppm) | Control Index Crown Rust in Oats (Puccinia coronata; 500 ppm) | Control Index Preventive Effect (Sphaerotheca fuliginea [5]; foliar spray 2.0 ppm) | Control Index Curative Effect (Sphaerotheca fuliginea [5]; foliar spray 2.0 ppm) | Control Index Preventive Effect (Sphaerotheca fuliginea [5]; foliar spray 7.8 ppm) | Control Index Curative Effect (Sphaerotheca fuliginea [5]; foliar spray 7.8 ppm) | minimal effective concentration (Candida albicans KE-2 [6]) [µg/mL] | Control Index Powdery Mildew in Cucumber (Sphaerotheca fuliginea [7]; 125 ppm) | Control Index Powdery Mildew in Cucumber (Sphaerotheca fuliginea [7]; 500 ppm)
OC(Cn1cncn1)(c1ccc(Cl)cc1)c1ccon1 (stereo not drawn) [Ia - 2] | 100 | 100 | 100 | 93 | 100 | 100 | 100 | 70 (Leaves covered with symptom between 16 % and 45 % area) | 100 | 97 (Leaves covered with symptom less than 3 % area) | 100 | 100 | 100 | 0.04 | 70 (Leaves covered with symptom between 16 % and 45 % area) | 90 (Leaves covered with symptom between 4 % and 15 % area)
OC(Cn1cncn1)(c1ccon1)c1ccc(Cl)cc1Cl (stereo not drawn) [Ia - 3] | 100 | 100 | 100 | 100 | 94 | 70 (Leaves covered with symptom between 16 % and 45 % area) | 100 | 97 (Leaves covered with symptom less than 3 % area) | 100 | 100 | 100 | 100 | 100 | 0.02 | 50 (Leaves covered with symptom between 46 % and 65 % area) | 70 (Leaves covered with symptom between 16 % and 45 % area)
OC(Cn1cncn1)(c1ccon1)c1ccc(F)cc1F (stereo not drawn) [Ia - 4] | 100 | 100 | 100 | 53 | 86 | 50 (Leaves covered with symptom between 46 % and 65 % area) | 100 | 50 (Leaves covered with symptom between 46 % and 65 % area) | 97 (Leaves covered with symptom less than 3 % area) | 97 (Leaves covered with symptom less than 3 % area) | 100 | 100 | 100 | 0.16 | 50 (Leaves covered with symptom between 46 % and 65 % area) | 70 (Leaves covered with symptom between 16 % and 45 % area)
